Four molecules from patent US10682328B2, “Compositions and methods for treatment of retinal degenerative diseases” (MOR RESEARCH APPLICATIONS LTD., priority 2014, dated 2020) can be followed below.

Format in all cases: cell-based, human
One series has as its system ARPE-19 cells. Briefly: XTT cell viability / proliferation assay. The procedure: Cell viability assays ARPE-19 cells were seeded in 96-well plates (5000 cells/well) in full medium and were pretreated with the TAK1 inhibitor 5Z-7-oxozeaenol (1 μM) or left untreated for 1 hour. Their viability was then assayed by the XTT assay (cell proliferation kit cat #20-300-1000; Beit Haemek, Israel).
Background: Tetrazolium dyes change colour on reduction, which living cells bring about.

Series [1] deals with RPE cells. In words: SA-β-gal staining (senescence marker).
The subject of series [2] is RPE cells. Briefly: Anisomycin toxicity to RPE cells (cellular morphology 72 hours post-treatment). The following applies: low levels, 5 minute treatment. The procedure:
To determine possible toxicity of anisomycin to RPE cells, RPE cells were treated with anisomycin at different concentration for 5 minute periods. Following treatment, the medium was replaced and fresh medium was added. 72 hours post-treatment, the cells were photographed. […] Their viability was then assayed by the XTT assay.

Series [3] deals with RPE cells (ARPE-19). Briefly: Annexin and propidium iodide double-staining FACS assay of RPE cells (apoptosis). The procedure: (§1) Double-staining (annexin and propidium iodide (PI)) assay of RPE cells. RPE cells (ARPE-19, available from ATCC) were treated for one hour with the TAK1 inhibitor {5Z-7-oxozeaenol (1 μM)}, following 200 μM H2O2 for one hour or left untreated. The cells were then washed with fresh medium and after 24 hours were trypsinized, stained, and analyzed by FACS. The percentage of cells in each cell-cycle phase (G1/G0, S, and G2/M) was determined by its DNA content (FL2A).
The role of TAK1 in the inflammatory response is characterized (12, 13), but little is known about its participation in the response of RPE cells to stress. RPE cells were treated with the TAK1 inhibitor 5Z-7-oxozeaenol (1 μM) for 1 hour before further treatment with H2O2 (200 μM). […] In contrast, in cells treated with the TAK1 inhibitor prior to their treatment with H2O2 the number apoptotic cells was 24% (FIG. 1A). The number of cells in the late apoptosis section of each FACS chart (annexin and Pi, upper right panel) was similar with or without TAK1 inhibitor.

For series [4], the system named is RPE cells (ARPE-19). Briefly: FACS cell-cycle phase analysis by DNA content (FL2A). The procedure:
as §1
To examine the effect of TAK1 inhibition on the RPE cell cycle, RPE cells were treated with TAK1 inhibitor, with or without H2O2. The RPE cells are quiescent and mostly located at the G0/G1 stage (FIGS. 1B and 1C), however, following TAK1 inhibition the percentage of cells at the G0/G1 stage increased to 89% of the total number. […] This phenomenon was reduced upon TAK1 inhibition prior to the oxidative stress (FIGS. 1B and C). The Cell cycle arrest at G0/G1 upon TAK1-inhibition was further supported by the reduction in proliferation of RPE cells observed in the presence of the TAK1 inhibitor (FIG. 1D).

A further series concerns p53, phospho-p38. In words: Western blot of p53 and phospho-p38 in RPE cells under oxidative stress. The procedure: Western blot analysis was performed by standard protocols (11), p53, p38, phospho-p38, GADPH, and TAK1; antibodies were obtained from Enco, Israel.
The p53 protein is known to play a critical role in cell-cycle regulation, DNA repair, and programmed cell death (14, 15). In view of this knowledge, and given the above-described observation that TAK1 inhibition reduced apoptosis, the expression of p53 in RPE cells was examined.
(In general: Immunoblotting shows a protein as a band on a membrane.)

In series [5] the test system is RPE cells. In words: Conditioned media (SASP) applied on fresh RPE cells, morphology. The procedure:
FIG. 5 presents photographs showing that TAK1 inhibition contributes to the SASP of the RPE cells, causing hypertrophy and dysfunction. RPE cells were grown with the TAK1 inhibitor and/or H2O2 ([…]) or without treatment. After 2 weeks, conditioned media from the differently treated cells were centrifuge and the supernatants was employed on new freshly cells. Representative photographs of fresh RPE cells treated for 72 hours with the indicated conditioned media are shown. Scale bar=50 μm.
The most significant effect of senescence, is the acquisition of a senescence-associated secretory phenotype (SASP). SASP can convert senescent cells to proinflammatory cells that promote the secretion of chemokines and cytokines that can affect the microenvironment, including in the human retina (16, 17). To examine the role of TAK1 in this process, RPE cells were treated with TAK1 inhibitor or with H2O2, alone or in combination. After 2 weeks, the media was collected from the three separate treatments, centrifuged and the supernatants (conditioned media) were applied on fresh RPE cells for 72 hours.

In series [6] the test system is RPE cells. Briefly: RPE cell size quantification (hypertrophy). The following applies: oxidative stress with TAK-1 inhibition; N=40 cells. The procedure: N=40 cells for each treatment. One of the hallmarks of RPE senescence is cellular hypertrophy. RPE cell size is approximately […]; but upon oxidative stress or genetic mutation RPE cells can undergo enlargement.

Where [7] appears, read: medium from cells treated 2 weeks with the single agent.

SMILES strings stand for the structures.

Consider `COc1ccc(C[C@H]2NC[C@H](O)[C@H]2OC(C)=O)cc1` [anisomycin, (2R,3S,4S)-4-hydroxy-2-(4-methoxybenzyl)-pyrrolidin-3-yl acetate], for which the “rate of cell proliferation” value in the series with ARPE-19 cells (oxidative stress and anisomycin) was “did not display reduction”. The “number of SA-β-Gal positive cells” value in the series with RPE cells [1] (H2O2 1 hour, 10 days growth, anisomycin 10 ng/ml 5 min, five more days, versus untreated cells exposed to oxidative stress) is “reduces the number of SA-β-Gal positive cells”. In the series on RPE cells [2], the “toxicity to RPE cells” value was “not toxic”.
As for `CC1=C(/C=C/C(C)=C/C=C/C(C)=C/c2cc(/C=C/C=C(C)/C=C/C3=C(C)CCCC3(C)C)cc[n+]2CCO)C(C)(C)CCC1` [A2E], the senescent phenotype result with RPE cells [1] (A2E 5 μM added to cultured RPE cells) is “increases the senescent phenotype”.
Regarding `COc1cc(O)c2c(c1)/C=C/C[C@H](O)[C@H](O)C(=O)/C=C\C[C@H](C)OC2=O` [5Z-7-oxozeaenol], the “number of apoptotic cells as a percentage of the total number” value with RPE cells (ARPE-19) [3] (TAK1 inhibitor 1 μM 1 hour prior to H2O2 200 μM, FACS after 24 hours) is on record as 24%. For the same molecule, the “G2/M arrest under oxidative stress” value in the series with RPE cells (ARPE-19) [4] (TAK1 inhibition prior to H2O2 treatment) is given as “reduced”. Moreover, the “percentage of cells at the G0/G1 stage” value with RPE cells (ARPE-19) [4] (TAK1 inhibitor 1 μM, without H2O2) turned out to be 89%. Besides, in the series with ARPE-19 cells (5Z-7-oxozeaenol 1 μM pretreatment 1 hour, versus untreated cells peaking on day 4), the “proliferation rate (optical density)” value is on record as “slower proliferation rate”. Further, the “number of cells expressing SA-β-gal” value with RPE cells [1] (TAK1 inhibitor alone, relative to untreated cells) was “dramatically increased”. In addition, the SA-β-gal expression result with RPE cells [1] (TAK1 inhibitor pretreatment then oxidative stress (200 μM H2O2 1 hour), days 13 and 16) was “strongly increased”. Moreover, in the series with p53, phospho-p38 (TAK1 inhibition, days), the “p53 expression levels over a longer period” value is given as “reduced p53 expression levels slightly more than the untreated cells”. Besides, in the series with p53, phospho-p38 (TAK1 inhibitor 1 μM pretreatment, oxidative stress), the p38 phosphorylation entry is “inhibition of p38 phosphorylation”. The “time of p53 expression peak” value with p53, phospho-p38 (pretreated with TAK1 inhibitor 1 μM, oxidative stress, control peak after 60 min) stood at 10 min. The “phenotype of fresh RPE cells after 72 hours with conditioned medium” value in the series on RPE cells [5] (setting [7]) is “hypertrophic phenotype similar to that of senescent cells”; in the series on RPE cells [5] (medium from cells treated with both TAK1 inhibitor and H2O2), “aberrant morphology similar to that of atrophic RPE cells”. In addition, the cell size result with RPE cells [6] is given as “increases cell size”.
On to `OO` [H2O2], for which the “number of apoptotic cells as a percentage of the total number” value with RPE cells (ARPE-19) [3] (H2O2 alone (200 μM), untreated cells 1.25%) came out at 31%. Moreover, the G2/M arrest result with RPE cells (ARPE-19) [4] (H2O2 treatment alone) is listed as “high levels of G2/M arrest”. Also, in the series on RPE cells [5] (setting [7]), the “phenotype of fresh RPE cells after 72 hours with conditioned medium” value is listed as “hypertrophic phenotype similar to that of senescent cells”.
